# From a melting point compilation (Tetko et al.; mined from patent text by program, amines drawn as free bases though some values may be those of a salt)
row,Compound,melting point [°C]
1,O=c1[nH]c(=Cc2ccc(OCc3ccccc3)cn2)c(=O)[nH]c1=Cc1ccc(Cl)c(Cl)c1,264 to 265
2,Cc1c(-c2ccc(NC(=O)OC(C)(C)C)cc2)nc2n1CCc1ccccc1C2OC1CCN(C)CC1 (stereo not given),194
3,COc1cc(C(CCC(C(=O)O)c2cc(OC)c(OC)c(OC)c2)C(=O)O)cc(OC)c1OC (stereo not given),226 to 233
4,Cc1nc(-c2ccc(Cl)cc2)c(CC(Cl)C(=O)O)o1 (stereo not given),208 to 209
5,CN(CCOc1ccc(CCOCCc2ncno2)cc1)c1nc2ccccc2o1,89 to 90
6,COC(=O)c1ccc(N2CCCC2=O)cc1,118 to 120
7,O=C1c2ccccc2C(=O)N1CC(=O)N1c2ccccc2N(Cc2ccccc2)C[C@@H]2CCC[C@H]21 (relative stereo),232 to 234
8,O=C1NC(Cc2ccc(OCc3ccccc3)cn2)C(=O)NC1Cc1ccccc1 (stereo not given),215 to 218
9,CCCNC(=S)NS(=O)(=O)c1cc2c(cc1OC)OC(C)(C)C(NC(=O)c1cc(Cl)ccc1OC)C2 (stereo not given),210 to 211
10,CN(C)C(=S)SSCCSSC(=S)N(C)C,142 to 143
11,COC(=O)c1ccc2oc3c(c(=O)c2c1)CCC3=Cc1ccccn1,250 to 252
12,O=C(Nc1ccc(C(F)(F)F)cc1)N1CC2CCc3cc(Cl)ccc3C2=N1 (stereo not given),196 to 199
13,O=C(O)Cn1c(=O)n(S(=O)(=O)c2ccccc2)c(=O)c2ccc(Cl)cc21,212 to 214
14,O=C(O)COc1c[nH]c(CCl)cc1=O,150 to 155
15,Oc1ccc(-c2nnsc2-c2ccc(O)cc2)cc1,221
16,COc1cc2c(cn1)CCC(=CN(C)C)C2=O,102 to 104
17,O=C(NCc1ccccc1)Nc1nnc(C(=O)OCc2ccccc2)s1,188 to 192
18,COC(=O)[C@@H]1C[C@H](OS(=O)(=O)c2ccccc2Br)C(=O)[C@@H]2[C@@]3(C)C[C@@H](c4ccoc4)OC(=O)[C@H]3CC[C@]21C,162 to 163
19,CCCCCCCCCCCCOc1ccc(-c2cc3ccccc3[nH]2)cc1,204
20,NS(=O)(=O)c1cc2ccncc2o1,199 to 201
21,Cn1c([N+](=O)[O-])cnc1-c1nnc2ccc(N=C(N)CCO)nn12,191 to 192
22,CCOC(=O)C(Cc1ccc(OCc2ccccc2)cc1)Oc1ccc(Cl)cc1 (stereo not given),63 to 64
23,CN1CCN(C)CC(OC(=O)c2n[nH]c3ccccc23)C1,184 to 185
24,Cc1cc(Oc2ccc([N+](=O)[O-])c(C(F)(F)F)c2)n[nH]1,96 to 98
25,CC12CCC3C(CCC4=CC(=CF)CCC43CS)C1CCC2=O (stereo not given),118 to 120

row,Compound,melting point [°C]
1,O=C(CCCSc1ccccc1)N1C(=O)OCC1Cc1ccccc1 (stereo not given),84 to 85
2,Cc1cc(Cl)cc(C(=O)Nc2ccnc(Cl)c2)n1,221
3,CC1(C)CCC(C)(C)c2cc(-c3cc(-c4ccc(C(=O)O)cc4)ccc3-c3ccccc3)ccc21,287 to 288
4,CCN(CC)C(=O)c1c(S(N)(=O)=O)cc(OC)c(OC)c1C(C)C,138 to 140
5,Fc1ccc(Cn2c(NC3CCN(CCNC(=S)NCc4cccnc4)CC3)nc3ccccc32)cc1,147
6,c1cc2c(s1)CCCCN2,55 to 57
7,CCCN(C(=O)COc1c(C)cccc1C)C1CCc2c(ccc(O)c2O)C1 (stereo not given),153 to 155
8,CCCCNC(=O)CCCCCCCSc1nc(-c2ccccc2)c(-c2ccccc2)[nH]1,136 to 137
9,CC(=O)C1CCC2C3CCC4=CC(=O)C=CC4(C)C3CCC12CO[N+](=O)[O-] (stereo not given),148 to 150
10,CC(=O)NCC1CN(c2ccc(-c3cccc(CN(CC(N)=O)CC(N)=O)c3)c(F)c2)C(=O)O1 (stereo not given),213
11,CC(C)(N)c1ccc(-c2nc(Nc3ccc(F)cc3)ncc2C#N)cc1,228 to 229
12,CC1(C)CC(O)C(C)(C)c2cc(C=O)ccc21 (stereo not given),76 to 78
13,CC(C)(C)NS(=O)(=O)c1c[nH]c2ccccc12,157 to 158
14,NC(=O)c1c(CN2CCC(c3ccccc3)(c3ccccc3)CC2)ncn1Cc1ccc(Cl)cc1,227 to 228
15,Cc1ccc(S(=O)(=O)C(C)(C)C(=O)c2ccccc2)cc1,64 to 64.5
16,Fc1c(F)c(-c2c(F)c(F)c(Oc3cccc4ccccc34)c(F)c2F)c(F)c(F)c1Oc1cccc2ccccc12,189 to 191
17,COCCNC(=O)c1n[nH]c2c(=O)[nH]c3cc(Cl)ccc3c(=O)c12,287 to 291
18,O=C(O)c1cccc(-c2cccn3cc(Cc4cccc(C(F)(F)F)c4)nc23)c1,179 to 180
19,COC(=O)C1(CCCCCCCCCCCCC2(C(=O)NC3CC3)CC2)CC1,50.6 to 53
20,Cc1ccc(C)c(CN2C(=O)c3ccccc3C2=O)c1,148 to 150
21,CCc1c(C)c(=O)n(-c2cc(OC(C)C)c(Cl)cc2F)c(=O)n1C,88 to 91
22,O=C(O)c1[nH]c(-c2ccoc2)cc1-c1ccc(O)cc1,154 to 156
23,COc1ccc2c(=O)[nH]c(=O)[nH]c2c1OC,314 to 316
24,CCc1nc(N)nc(N)c1N1CCNCC1,204 to 207
25,CCCCC(=O)N(Cc1ccc(OC(F)(F)F)c(Cl)c1)c1cc(F)cc(-c2nnn[nH]2)c1,137

row,Compound,melting point [°C]
1,COc1cc(Cc2cnc(N)nc2N)c2c(c1OC)OC(C1CC1)C=C2 (stereo not given),229
2,CCOC(=O)c1[nH]c(CC)c(C)c1CC(C)C,53 to 55
3,Cc1nc2n(C)ccn2c(=O)c1CCN1CCC(Nc2nc3ccccc3[nH]2)CC1,230
4,COc1ccc(-c2cc(=O)n(CC3CC3)nc2-c2ccc(OC)cc2)cc1,129
5,O=C(O)C=Cc1cn(Cc2cc(OCc3ccccc3)cc(OCc3ccccc3)c2)cc1-c1ccccc1,182 to 183
6,COC(=O)c1cc(N(C)C)c(N2CCCCC2)c(N(C)C)c1,103 to 105
7,COC1=C(Cl)C(=O)NC1=Nc1ccccc1,179 to 180
8,COc1ccc(C2CCC(=O)N2c2ccc(OC)cc2)cc1 (stereo not given),91.5 to 92.5
9,CCOC(=O)c1sc2cc(COS(C)(=O)=O)ccc2c1S(=O)c1cccc(OC)c1 (stereo not given),80 to 83
10,NNc1nnc(C=Cc2ccc([N+](=O)[O-])o2)s1,205 to 206
11,COc1ccccc1-c1ccc(C(=O)N2Cc3ccc(C(=O)NCc4cccn4C)n3Cc3ccccc32)cc1,148 to 150
12,BrC(Br)=Cc1ccc(OCc2ccccc2)cc1,97 to 98
13,CN1Cc2nc3ccccc3c(=O)n2-c2ccccc2C1=O,204 to 206
14,CSc1nn2c(Cl)cc(C)nc2c1S(=O)(=O)c1ccccc1,163 to 165
15,COc1ccc(Cn2cc(C(=O)C(=O)NC3=CC(=O)OC3)c3ccccc32)cc1,265 to 267
16,Cc1c(C)n(CC=Cc2ccccc2)c2c(OCc3ccc(F)cc3)nncc12,124 to 126
17,O=C1c2c(Cl)cccc2-n2cnc(-c3noc(CCl)n3)c2[C@@H]2CCCN12,184 to 186
18,N#CC1=Cc2cc(Br)ccc2OC1,132 to 133
19,COc1ccc2cc(C(C)COS(N)(=O)=O)ccc2c1 (stereo not given),112 to 115
20,O=c1oc2c(ccc3ccccc32)c2c1CNCC2,227 to 230
21,CS(=O)(=O)OCCN1c2ccccc2Oc2ccccc21,81 to 83
22,O=c1nc(-c2cnccn2)sc2ccccc12,241 to 242
23,O=C(NCC1CCCCN1)c1cc(O)ccc1OCC(F)(F)F (stereo not given),134 to 137
24,CC(C)(C)OC(=O)CN1C(=O)c2ccccc2S1(=O)=O,130 to 132
25,CCCCCS(=O)(=O)NC(=O)CCc1ccc(OCCOC)cc1OC1CCCCC1,64.1 to 65.4

row,Compound,melting point [°C]
1,Cc1cccc(NC(=O)C(=O)OCC#CI)c1,170 to 172
2,CCOc1ccc2c(c1)n(C1CCCCC1)c(=O)n2S(=O)(=O)c1ccc(NC(=O)Oc2ccccc2)cc1OC,197
3,C#CCNC(=O)c1ncn2c1[C@@H]1CCN1C(=O)c1sccc1-2,233 to 235
4,c1ccc(CN(Cc2ccccc2)C2CCC3(CC2)OCCO3)cc1,> 95
5,C#CCCn1nnc2cc3c(=O)n(C(C)Cn4cnnn4)nnc3cc2c1=O (stereo not given),201 to 204
6,O=C1c2c(O)cccc2C(c2cccs2)c2cccc(O)c21,181 to 182
7,COc1ccc(-c2ccc(C(=O)Nc3ccc4cc(CN5CCCC5)cnc4c3F)cc2)cc1,217 to 220
8,S=C=Nc1ccc(Cl)c(Cl)c1,111 to 113
9,COC(=O)[C@H](CC(C)C)NC(=O)CCC(=O)Nc1ccc(Nc2ccccc2)cc1,134 to 135
10,O=C1N(CC2CCOCC2)c2ccccc2C12COc1cc3c(cc12)OCCO3 (stereo not given),129 to 131
11,CCOC(=O)c1ccc2nc3cscc3c(=O)n2c1,175
12,CCOC(=O)/C(CC(=O)O)=C(\c1ccc(Cl)cc1)c1ccc(S(C)(=O)=O)cc1,40 to 42
13,Cn1c(C(F)(F)F)cc(=O)n(-c2cc(OCc3ccc(F)cc3)c(Cl)cc2F)c1=O,174 to 177
14,CC(C)(C)OC(=O)NCCCCCCCCNC(=O)OC(C)(C)C,96 to 97
15,"CCOC(=O)C1=C(C)Nc2snc(CCN3CCN(c4ccccc4)CC3)c2C1c1cccc([N+](=O)[O-])c1 (single isomer, unassigned; (+))",148 to 149
16,CS(=O)(=O)Nc1ccc(OCCCc2ccc(OCCCCOc3ccccc3)cc2)c(C(=O)O)c1,86 to 88
17,CCC1(c2cccs2)OCC(=O)Nc2ccc(-c3coc(C#N)c3)cc21 (stereo not given),99 to 100
18,Oc1cncc2sccc12,206
19,CN(C)c1ccc2nc[nH]c(=O)c2c1,233 to 236
20,CCC(=O)Oc1cc(OC)cc(OC)c1C(=O)C=Cc1ccc(OC)cc1,117 to 118
21,O=[N+]([O-])c1ccccc1OCc1csc(-c2ccccc2)n1,95
22,CCCC[C@H](NC(=O)[C@H](CCC)NC(=O)OCc1ccccc1)C(=O)CSCc1ccco1,95 to 96
23,Cc1onc(C(=O)c2ccc(Cl)cc2)c1[N+](=O)[O-],173 to 175
24,CNC(=NC#N)Nc1ccc(Cl)nc1,227 to 228
25,O=[N+]([O-])c1ccnc(Nc2nccs2)c1,230 to 233
